Test results: EP0210291A1, “Platinum complexes of antitumor agents” (AMERICAN CYANAMID COMPANY, priority 1985, dated 1987)
Values joined by “and” are separate entries in the source; they are usually repeats but may differ in a detail not shown here. Identical values can stand only once. Counter-ions that a name gives are not always drawn.

Test system: lymphocytic leukemia P388
Test: Lymphocytic leukemia P388 test
Assay type: in vivo, BDF/1 mice
Conditions: for Median Survival: mice with P388 leukemia; for T/Cx100: survival time treated/control
Experimental: Lymphocytic leukemia P388 test
The animals used were BDF/1 mice all of one sex, weighing a minimum of 18 g and all within a 3 g weight range. There were 5 or 6 animals per test group. The tumor transplant was by intraperitoneal injection of 0.5 ml of dilute ascitic fluid containing 10⁶ cells of lymphocytic leukemia P388. The test compounds were administered intraperitoneally on days 1,5 and 9 relative to tumor inoculation, at various doses. The animals were weighed and survivors recorded on a regular basis for 30 days. The median survival time and the ratio of survival time for treated (T)/control (C) animals were calculated. The positive control compound was either 1,4-dihydroxy-5,8-bis[[2-(2-hydroxyethylamino)ethyl]-amino]anthraquinone dihydrochloride or Cisplatin.

[1] = Mus musculus, P388, ip, read-out: T/Cx100
[2] = dose 0.2 mg/kg intraperitoneally on days 1, 5 and 9
[3] = dose 0.6 mg/kg intraperitoneally on days 1, 5 and 9, 0.6 mg/kg
[4] = dose 0.8 mg/kg intraperitoneally on days 1, 5 and 9, 0.8 mg/kg
[5] = dose 1.2 mg/kg intraperitoneally on days 1, 5 and 9
[6] = dose 1.25 mg/kg intraperitoneally on days 1, 5 and 9
[7] = dose 1.5 mg/kg intraperitoneally on days 1, 5 and 9
[8] = dose 2.5 mg/kg intraperitoneally on days 1, 5 and 9
[9] = dose 50 mg/kg intraperitoneally on days 1, 5 and 9
[10] = dose 200 mg/kg intraperitoneally on days 1, 5 and 9

Molecule: O=C1c2c(O)ccc(O)c2C(=O)c2c(NCCNCCO)ccc(NCCNCCO)c21 [1,4-dihydroxy-5,8-bis[[2-(2-hydroxyethylamino)ethyl]-amino]anthraquinone dihydrochloride]
- response vs control in vivo at 0.025 mg/kg [1]: 110%
- response vs control in vivo at 0.1 mg/kg [1]: 136%
- response vs control in vivo at 0.4 mg/kg [1]: 153%
- response vs control in vivo at 1.6 mg/kg [1]: 212%

Molecule: N.N.[Cl][Pt][Cl] [Cisplatin]
- Median Survival [2]: 21 days
- T/Cx100 [2]: 210%
- Median Survival [3]: 21 days and 22.5 days
- T/Cx100 [3]: 196% and 221%
- Median Survival [4]: 26.5 days and 23.5 days
- T/Cx100 [4]: 217% and 235%
- Median Survival [5]: 22 days
- T/Cx100 [5]: 206%
- Median Survival [6]: 13.5 days
- T/Cx100 [6]: 132%
- Median Survival [7]: 22.5 days
- T/Cx100 [7]: 184%
- Median Survival [8]: 16 days
- T/Cx100 [8]: 150%

Molecule: hydrazinecarboximidamide, compound with platinum chloride (1:1)
- Median Survival [9]: 20.5 days
- T/Cx100 [9]: 174%
- Median Survival [10]: 23 days
- T/Cx100 [10]: 195%
